# Article PMC12730265, “Combinatorial Antimicrobial Effects of Imidazolium-Based Ionic Liquids and Antifungals on Model Fungal Organisms” (Biomolecules, 2025)
# Read-outs that look alike come from different tables or passages of the source.
# Experiments:
# [1] = test system: C. albicans; assay: Kirby–Bauer disk diffusion assay on IL-containing YPD plates; type: cell-based
# Experimental: Assessment of fungal growth on YPD plates with AFs + ILs served as an indicator for the combined efficacy of treatment of ILs and AFs. YPD agar plates were made with addition of increasing concentrations of [HMIM]Cl at 0, 2.5, 6.25, and 25 mM or [OMIM]Cl at 0, 0.25, 0.625, and 2.5 mM. Plates solidified and dried on bench for 24 h before use. IN total, 400 μL of S. cerevisiae or C. albicans liquid culture at mid-log phase OD600 0.5 was spread using sterile glass beads to achieve even distribution. Following addition of culture, the plates were allowed to dry for 30 min before the addition of antifungal disks. Antifungal-infused disks were prepared using the stock solutions of solubilized antibiotics; 15 μL of each of the 4 azole antifungals at stock concentrations was pipetted onto a sterile 6 mm cellulose disk (BD). […] After plate drying was complete, sterile forceps were used to transfer the disks to the media, and the plate was grown upright in an incubator overnight at 30 °C. The following day, photographs were taken of the plates to visualize the zone of inhibition (ZOI) created by the combined treatment. Adobe Illustrator 2023 CC was used to perform digital measurements of ZOI diameters.
# To assess the potential for combinatorial effects of ILs and AFs in yeast, Kirby–Bauer disk diffusion assays were performed for C. albicans and S. cerevisiae for [HMIM]Cl and [OMIM]Cl with all four AFs. […] The addition of 6 mm cellulose disks infused with equal volumes of solubilized AFs to the plates occurred after plating of C. albicans or S. cerevisiae, allowing for growth for 48 h at 23 °C, at which point the plates were evaluated for the establishment of zones of inhibition (ZOI). Digital pictures were acquired of all plates, and measurements of ZOI diameter were performed digitally as described in the Methods. […] With progressively increasing amounts of both [HMIM]Cl and [OMIM]Cl, ZOIs increased for all Afs, including Fluconazole and Itraconazole, which appear to be ineffective without IL in the Kirby–Bauer disk assay. Experiments were performed in triplicate and ZOIs were measured for all plates.
# [2] = test system: HeLa cells; assay: Checkerboard cytotoxicity assay IL + Clotrimazole, CellTiter-Blue
# Experimental: HeLa cells (Kyoto line) were grown at 37 °C in 5% CO2 using DMEM media with 4.5 g/L glucose + Sodium Pyruvate + L-Glutamine (VWRV02-0101) with 10% FBS. Antibiotics such as Pen/Strep were not used during treatment with ILs or AFs to exclude the possibility of interaction with other antibiotics. HeLa cells were grown to 70–90% confluency in T75 dishes; cells were dissociated with Trypsin/EDTA […] for 3 min and resuspended in 25 mL DMEM +10% FBS; 180 μL cells in media were added to each of the 96 wells on the plasma-treated culture plate and incubated at 37 °C overnight. Solutions of Clotrimazole plus either [HMIM]Cl and [OMIM]Cl were created and 20 μL of IL, AF, or IL + AF were added to 96-well plate and incubated at 37 °C for 24 h. Promega CellTiter-Blue Cell Viability reagent was used to evaluate cytotoxicity in accordance with the manufacturer’s guidelines. For each well, 20 μL of CellTiter-Blue was added and then the plates were incubated for either 1, 2, or 4 h and fluorescence was measured at Ex/EM 485/590 nm using a Biotek Synergy HT fluorometer Winooski, VT USA. EC50 and FIC calculations were performed using these treatments. EC50 calculations were performed using ATTB Bioquest online EC50 calculator and FIC scores were calculated as described in Doern et al..
# One open question is whether addition of either of these ILs at sub-cytotoxic concentrations can improve effectiveness of AFs in fungi vs. mammalian cells. To evaluate this, we performed checkerboard assays for both [HMIM]Cl and [OMIM]Cl in the presence of Clotrimazole and calculated FIC scores as described in C. albicans checkerboard assays.
# [3] = test system: HeLa cells; assay: CellTiter-Blue cytotoxicity assay; type: cell-based, human; details: for EC50: Homo sapiens, HeLa, read-out: EC50 (50% viability)
# Experimental: EC50 and FIC calculations were performed using these treatments.
# To understand the degree to which imidazolium chloride-based ILs of varying chain length are toxic to human cells, we treated HeLa cells with [HMIM]Cl or [OMIM]Cl with each of the four azole AFs for 24 h and evaluated cytotoxicity. Following 24 h of exposure in liquid culture at defined serial dilutions in a 96-well plate format, cells were evaluated for viability using CellTiter-Blue assay in which living cells can metabolize resazurin into resorufin, a fluorescent reporter molecule detected by plate spectroscopy. Consistent with findings for bacteria and yeast microorganisms, high concentrations of imidazolium chloride-based ILs are toxic to HeLa cells (Figure 6B). Moreover, HeLa cells treated with ILs with longer alkyl chain lengths [OMIM]Cl are less viable than when treated with [HMIM]Cl at the same final concentration. […] With respect to all four AFs, the degree of specificity for these drugs to fungi vs. human cells was clear (Figure 6B).
compound,measurement,setting,value
Clc1ccccc1C(c1ccccc1)(c1ccccc1)n1ccnc1 [Clotrimazole],Zone of inhibition (ZOI) diameter,[1]; [HMIM]Cl 0 mM in plate,10 mm
same,Zone of inhibition (ZOI) diameter,[1]; [HMIM]Cl 2.5 mM in plate,10.33 mm
same,Zone of inhibition (ZOI) diameter,[1]; [HMIM]Cl 6.25 mM in plate,25.67 mm
same,Zone of inhibition (ZOI) diameter,[1]; [HMIM]Cl 25 mM in plate,30.67 mm
same,Zone of inhibition (ZOI) diameter,[1]; [OMIM]Cl 0 M in plate,10 mm
same,Zone of inhibition (ZOI) diameter,[1]; [OMIM]Cl 0.25 mM in plate,11 mm
same,Zone of inhibition (ZOI) diameter,[1]; [OMIM]Cl 0.625 mM in plate,23.33 mm
same,Zone of inhibition (ZOI) diameter,[1]; [OMIM]Cl 2.5 mM in plate,44.67 mm
same,inhibition of C. albicans growth around disk,[1]; absence of added IL,minimal inhibition
same,"Clotrimazole concentration used for FIC, alone","[2]; human, 24 h",250 mg/L
"CCCCCCn1cc[n+](C)c1.[Cl-] [[HMIM]Cl, 1-hexyl-3-methylimidazolium chloride]",toxicity on HeLa cells,[3]; 1.563 mM [HMIM]Cl,low levels of toxicity
same,EC50,[3]; 24 h,14.1 mM
same,"IL concentration used for FIC, IL alone","[2]; human, 24 h",12.5 mM
same,"IL concentration used for FIC, in combination","[2]; human, 24 h",12.5 mM
"CCCCCCCCn1cc[n+](C)c1.[Cl-] [[OMIM]Cl, 1-octyl-3-methylimidazolium chloride]",EC50,[3]; 24 h exposure,1.11 mM
same,"IL concentration used for FIC, IL alone",[2]; IL alone,3.125 mM
same,Cell Titer Blue Assay plate reading,"[2]; OMIM[Cl] 0.195312, Clotrimazole 0.03125 mg/mL",553
same,Cell Titer Blue Assay plate reading,"[2]; OMIM[Cl] 0.195312, Clotrimazole 0.0625 mg/mL",506
same,Cell Titer Blue Assay plate reading,"[2]; OMIM[Cl] 0.195312, Clotrimazole 0.125 mg/mL",440
same,Cell Titer Blue Assay plate reading,"[2]; OMIM[Cl] 0.195312, Clotrimazole 0.25 mg/mL",135
same,Cell Titer Blue Assay plate reading,"[2]; OMIM[Cl] 0.195312, Clotrimazole 0.5 mg/mL",30
same,Cell Titer Blue Assay plate reading,"[2]; OMIM[Cl] 0.195312, PBS instead of Clotrimazole",524
same,Cell Titer Blue Assay plate reading,"[2]; OMIM[Cl] 0.390625, Clotrimazole 0.03125 mg/mL",343
same,Cell Titer Blue Assay plate reading,"[2]; OMIM[Cl] 0.390625, Clotrimazole 0.0625 mg/mL",333
same,Cell Titer Blue Assay plate reading,"[2]; OMIM[Cl] 0.390625, Clotrimazole 0.125 mg/mL",92
same,Cell Titer Blue Assay plate reading,"[2]; OMIM[Cl] 0.390625, Clotrimazole 0.25 mg/mL",161
same,Cell Titer Blue Assay plate reading,"[2]; OMIM[Cl] 0.390625, Clotrimazole 0.5 mg/mL",31
same,Cell Titer Blue Assay plate reading,"[2]; OMIM[Cl] 0.390625, PBS instead of Clotrimazole",533
same,Cell Titer Blue Assay plate reading,"[2]; OMIM[Cl] 0.78125, Clotrimazole 0.03125 mg/mL",128
same,Cell Titer Blue Assay plate reading,"[2]; OMIM[Cl] 0.78125, Clotrimazole 0.0625 mg/mL",121
same,Cell Titer Blue Assay plate reading,"[2]; OMIM[Cl] 0.78125, Clotrimazole 0.125 mg/mL",60
same,Cell Titer Blue Assay plate reading,"[2]; OMIM[Cl] 0.78125, Clotrimazole 0.25 mg/mL",66
same,Cell Titer Blue Assay plate reading,"[2]; OMIM[Cl] 0.78125, Clotrimazole 0.5 mg/mL",32
same,Cell Titer Blue Assay plate reading,"[2]; OMIM[Cl] 0.78125, PBS instead of Clotrimazole",180
same,Cell Titer Blue Assay plate reading,"[2]; OMIM[Cl] 1.5625, Clotrimazole 0.03125 mg/mL",126
same,Cell Titer Blue Assay plate reading,"[2]; OMIM[Cl] 1.5625, Clotrimazole 0.0625 mg/mL",45
same,Cell Titer Blue Assay plate reading,"[2]; OMIM[Cl] 1.5625, Clotrimazole 0.125 mg/mL",58
same,Cell Titer Blue Assay plate reading,"[2]; OMIM[Cl] 1.5625, Clotrimazole 0.25 mg/mL",33
same,Cell Titer Blue Assay plate reading,"[2]; OMIM[Cl] 1.5625, Clotrimazole 0.5 mg/mL",36
same,Cell Titer Blue Assay plate reading,"[2]; OMIM[Cl] 1.5625, PBS instead of Clotrimazole",206
same,Cell Titer Blue Assay plate reading,"[2]; OMIM[Cl] 3.125, Clotrimazole 0.03125 mg/mL",47
same,Cell Titer Blue Assay plate reading,"[2]; OMIM[Cl] 3.125, Clotrimazole 0.0625 mg/mL",37
same,Cell Titer Blue Assay plate reading,"[2]; OMIM[Cl] 3.125, Clotrimazole 0.125 mg/mL",36
same,Cell Titer Blue Assay plate reading,"[2]; OMIM[Cl] 3.125, Clotrimazole 0.25 mg/mL",36
same,Cell Titer Blue Assay plate reading,"[2]; OMIM[Cl] 3.125, Clotrimazole 0.5 mg/mL",38
same,Cell Titer Blue Assay plate reading,"[2]; OMIM[Cl] 3.125, PBS instead of Clotrimazole",47
same,Cell Titer Blue Assay plate reading,"[2]; OMIM[Cl] 6.25, Clotrimazole 0.03125 mg/mL",41
same,Cell Titer Blue Assay plate reading,"[2]; OMIM[Cl] 6.25, Clotrimazole 0.0625 mg/mL",38
same,Cell Titer Blue Assay plate reading,"[2]; OMIM[Cl] 6.25, Clotrimazole 0.125 mg/mL",39
same,Cell Titer Blue Assay plate reading,"[2]; OMIM[Cl] 6.25, Clotrimazole 0.25 mg/mL",39
same,Cell Titer Blue Assay plate reading,"[2]; OMIM[Cl] 6.25, Clotrimazole 0.5 mg/mL",40
same,Cell Titer Blue Assay plate reading,"[2]; OMIM[Cl] 6.25, PBS instead of Clotrimazole",41
same,Cell Titer Blue Assay plate reading,"[2]; OMIM[Cl] 12.5, Clotrimazole 0.03125 mg/mL",39
same,Cell Titer Blue Assay plate reading,"[2]; OMIM[Cl] 12.5, Clotrimazole 0.0625 mg/mL",39
same,Cell Titer Blue Assay plate reading,"[2]; OMIM[Cl] 12.5, Clotrimazole 0.125 mg/mL",38
same,Cell Titer Blue Assay plate reading,"[2]; OMIM[Cl] 12.5, Clotrimazole 0.25 mg/mL",37
same,Cell Titer Blue Assay plate reading,"[2]; OMIM[Cl] 12.5, Clotrimazole 0.5 mg/mL",40
same,Cell Titer Blue Assay plate reading,"[2]; OMIM[Cl] 12.5, PBS instead of Clotrimazole",38
